Converted amounts (≈) assume the structure as drawn. Read-outs that look alike come from different tables or passages of the source.
How the values were obtained:
[1] = system: molds and blue-stain fungi; assay: In vitro activity against molds and blue-stain fungi, poison plate assay (MIC); format: cell-based; conditions: malt extract agar, complete inhibition
Method: The effect of the representative compounds on the growth of certain molds and blue-strain fungi were determined using a poison plate assay according to the following procedure: The solutions of the representative compounds prepared above were further diluted with sterile water to desired concentrations and poured into Petri dishes. Malt extract agar medium was then added aseptically to the Petri dishes and to Petri dishes containing no compound (controls). The Petri dishes were then shaken to provide a uniform distribution of the agar medium. Each Petri dish containing compound and each control Petri dish, was then inoculated with a fungus and incubated for a period of time sufficient to permit complete growth of the fungus in the respective control Petri dish. The Petri dishes containing compound were then examined to determine the amount of inhibition of fungi for each concentration of compound tested.

[2] = system: blue-stain fungi and molds; assay: Activity against blue-stain fungi and molds in a stick test (threshold concentrations); conditions: beech sticks, 22° C., 90% relative humidity
How it was run: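 Wood sticks soaked 3 h in compound serially diluted in 50% ethanol, dried, then inoculated with fungal or spore suspension. Incubated at 22° C and 90% relative humidity until untreated controls grew, then growth scored 0 (none) to 4 (>50% surface covered).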

For `O=S1(=O)CCON=C1c1ccc(Cl)s1` [Compound 61, 3-(5-chloro-2-thienyl)-5,6-dihydro-1,4,2-oxathiazine-4,4-dioxide], the MIC ([1]; A. amstelodami, read-out: MIC (ppm) against A. amstelodami) was 5 µg/mL (≈ 19.9 µM), the MIC ([1]; Aspergillus niger, A. niger, read-out: MIC (ppm) against A. niger) was < 1 µg/mL and the MIC ([1]; Aspergillus versicolor, A. versicolor, read-out: MIC (ppm) against A. versicolor) was 2.5 µg/mL (≈ 9.93 µM). The MIC ([1]; Aureobasidium pullulans, A. pullulans, read-out: MIC (ppm) against A. pullulans) was 10 µg/mL (≈ 39.7 µM), the MIC ([1]; C. pilifera, read-out: MIC (ppm) against C. pilifera) was 2.5 µg/mL (≈ 9.93 µM) and the MIC ([1]; Cladosporium cladosporioides, C. cladosporioides, read-out: MIC (ppm) against C. cladosporioides) was 10 µg/mL (≈ 39.7 µM). It also gave an MIC ([1]; Fusarium solani, F. solani, read-out: MIC (ppm) against F. solani) of 5 µg/mL (≈ 19.9 µM), an MIC ([1]; Geotrichum candidum, G. candidum, read-out: MIC (ppm) against G. candidum) of 10 µg/mL (≈ 39.7 µM) and an MIC ([1]; P. purpurogenum, read-out: MIC (ppm) against P. purpurogenum) of 5 µg/mL (≈ 19.9 µM). The MIC ([1]; P. violacea, read-out: MIC (ppm) against P. violacea) was 25 µg/mL (≈ 99.3 µM), the MIC ([1]; Paecilomyces variotii, P. variotii, read-out: MIC (ppm) against P. variotii) was 5 µg/mL (≈ 19.9 µM) and the MIC ([1]; S. atra, read-out: MIC (ppm) against S. atra) was 2.5 µg/mL (≈ 9.93 µM). It also gave an MIC ([1]; S. entoxylina, read-out: MIC (ppm) against S. entoxylina) of 10 µg/mL (≈ 39.7 µM), an MIC ([1]; Trichoderma viride, T. viride, read-out: MIC (ppm) against T. viride) of 10 µg/mL (≈ 39.7 µM) and an MIC ([1]; U. atrum, read-out: MIC (ppm) against U. atrum) of 10 µg/mL (≈ 39.7 µM). For the same compound, the melting point was 113 to 114 °C, the “Threshold concentration (ppm), A. niger, score 0” value ([2]; A. niger, minimum concentration to obtain score 0) was <250 ppm and the “Threshold concentration (ppm), A. niger, score 1-2” value ([2]; A. niger, minimum concentration to obtain score 1-2) was <250 ppm. The “Threshold concentration (ppm), Aureobasidium, score 0” value ([2]; Aureobasidium, minimum concentration to obtain score 0) was >1000 ppm, the “Threshold concentration (ppm), Aureobasidium, score 1-2” value ([2]; Aureobasidium, minimum concentration to obtain score 1-2) was 250-500 ppm and the “Threshold concentration (ppm), Sclerophoma, score 0” value ([2]; Sclerophoma, minimum concentration to obtain score 0) was 100 ppm. For the same compound, the “Threshold concentration (ppm), Sclerophoma, score 1-2” value ([2]; Sclerophoma, minimum concentration to obtain score 1-2) was <50 ppm, the “Threshold concentration (ppm), Trichoderma, score 0” value ([2]; Trichoderma, minimum concentration to obtain score 0) was 2500 ppm and the “Threshold concentration (ppm), Trichoderma, score 1-2” value ([2]; Trichoderma, minimum concentration to obtain score 1-2) was 1000-2500 ppm.

Reference: patent publication US6372297B1, “Wood preservative oxathiazines” (Uniroyal Chemical Company, Inc., priority 1993, dated 2002)
